Tests used:
NF-κB [1] = test: LPS induced inflammation in mice, activated NF-κB in spleen cell nuclei; format: in vivo, ICR mice; details: about 40 mg/kg i.p. 24 hours before and 1 hour after LPS; spleens 1.5 hours after LPS
Description: The capacity of selected compounds to treat LPS induced inflammation in mice was examined by a protocol similar to the protocol described above. Five groups of three ICR mice weighing about 30 g were each treated by intraperitoneal injection with 120 μL vehicle (30% sulfobutylether-cyclodextrin in water), androst-5-ene-3α,7β,16α,17β-tetrol in vehicle, androst-5-ene-3β,4β,16α,17β-tetrol in vehicle or 4β-acetoxyandrost-5-ene-3β,16α,17β-triol in vehicle. All drug and vehicle formulations were solutions, not suspensions. The sulfobutylether-cyclodextrin was obtained commercially (Cydex Pharmaceuticals, Inc., Lexena, Kans.). There were two vehicle control groups one group received vehicle alone and the other received vehicle plus LPS. […] Drug was administered at about 40 mg/kg (1.2 mg drug/animal for each administration of the drugs). Spleens were harvested from the animals at 1.5 hours after injection of LPS and spleen cells were lysed and assayed for activated NF-κB by isolating nuclei from spleen cells and measuring NF-κB from the lysed nuclei. […] The level of activated NF-κB in spleen cells from the animals that were treated with vehicle and no LPS, was essentially the same as the activated NF-κB in spleen cells from drug treated animals.

MG-63 cells = test: Reversal of dexamethasone effects in MG-63 osteoblast cells; format: cell-based, human
Description: The capacity of 17α-ethynyl-5-androstene-3β,7β,17β-triol to reverse adverse effects of glucocorticoids in bone growth was shown in the human MG-63 osteosarcoma cell line. MG-63 cells are osteoblasts, which are cells that mediate bone growth. This cell line has been used extensively to study bone biology and to characterize the biological activity of compounds for treatment of bone loss conditions (e.g., B. D. Boyan et al., J. Biol. Chem., 264(20):11879-11886, 1989; L. C. Hofbauer et al., Endocrinology, 140(10):4382-4389, 1999). Adverse toxicities associated with elevated glucocorticoid levels include a decrease in the production of IL-6 and IL-8 by osteoblasts, including the MG-63 cell line, and an increase in the expression of the 11β-hydroxysteroid dehydrogenase type 1 enzyme (11β-HSD). Increased 11β-hydroxysteroid dehydrogenase type 1 enzyme results in increased levels of endogenous glucocorticoid activity by converting endogenous cortisone to the active cortisol, which inhibits bone growth. The 11β-HSD enzyme is expressed in liver, adipose tissue, brain and bone tissues. Cortisol generated by 11β-HSD-1 contributes to osteoporosis and disorders such as stroke, neuron death, depression and Parkinson Disease. Decreases in IL-6, IL-8 and osteoprotegerin are associated with decreased bone growth by osteoblasts.

[2] = tested on: experimental autoimmune encephalomyelitis (EAE); test: PLP-induced experimental autoimmune encephalomyelitis (EAE); format: in vivo, SJL mice; details: for cumulative incidence of EAE or lethality: 0.1 mg q.d. po; for course of EAE compared to vehicle-treated mice: 0.1 mg q.d. po from clinical onset to day 30 post immunization; for mean cumulative score, follow-up period (day 31 to day 54, post treatment): after end of treatment on day 30
[3] = tested on: popliteal lymph node cells; test: reporter antigen popliteal lymph node (PLN) assay, immune suppression; format: in vivo, BALB/C mice; details: 0.1 and 1 mg/day oral gavage
Description: Analysis of immune suppression. Glucocorticoid steroids such as dexamethasone, prednisolone or hydrocortisone are typically immune suppressive and have significant toxicities associated with their use. Immune suppression was examined in a reporter antigen popliteal lymph node assay in mice essentially as previously described (C. Goebel et al., Inflamm. Res., 45(Suppl. 2):S85-S90, 1996; R. Pieters et al., Environmental Health Perspectives 107(Suppl. 5):673-677, 1999). […] In this protocol, the vehicle was 0.1% carboxymethylcellulose, 0.9% saline, 2% tween 80 and 0.05% phenol, which contained 17α-ethynylandrost-5-ene-3β,7β,17β-triol in suspension in drug treated animals. Assessment of activity included (1) measuring suppression of numbers of total lymphocytes, antigen specific IgM, IgG1 and IgG2a antibody secreting cells (ASC) (ELISPOT assay) in popliteal lymph node cells; (2) analysis of cell surface marker (CD4, CD8, CD19, F480, CD80, CD86) expression by flow cytometry of living cells in suspension; and (3) IL-4, TNFα and IFNγ production by lymphocytes in vitro (ELISA).
Groups (n=5 per group) of specific pathogen free BALB/C mice were used. […] The results were analyzed by two-tailed Student's t-test with equal variance. […] Single cell suspensions were prepared, resuspended in 1 mL PBS-BSA (1%) and counted. Cell numbers, IL-4, IL-5 and IFNγ were measured.

NF-κB [4] = test: Kinetic analysis of NF-kB inhibition in vivo after LPS, ELISA of NF-κB in spleen cell nuclei; parameters: species or system mice; details: about 40 mg/kg i.p. 24 hours before LPS
Description: Kinetic analysis of NF-kB inhibition in vivo. […] In this study, mice were treated with 17α-ethynylandrost-5-ene-3β,7β,17β-triol (about 40 mg/kg, about 1.2 mg/animal) by intraperitoneal injection of a solution (not a suspension) of the compound in vehicle (120 μL vehicle; 30% sulfobutylether-cyclodextrin in water). The drug was injected 24 hours before intraperitoneal injection of bacterial LPS (about an LD50/24). The study used two groups of 12 animals, vehicle control or drug administered 24 hours before LPS challenge. Spleens were harvested from 3 animals from both groups just before LPS challenge and at 1.5, 2.0 and 2.5 hours after administration of LPS. Spleen cells were harvested and the level of activated NF-κB was measured by assay of NF-κB in nuclei.
Maximum NF-κB activation after LPS administration occurred at 1.5 hours in the vehicle controls, which was 4-fold increased over the pre-LPS level of activated NF-κB. The values for the vehicle control and drug treated animals are relative optical density units from ELISA measurement of NF-κB in nuclei from spleen cells.

osteoprotegerin = test: Osteoprotegerin levels in mice treated daily with dexamethasone; format: in vivo
Description: Osteoprotegerin levels in mice that were treated with vehicle and dexamethasone at 10 μg/day (positive control group) had 3.3 pmol/L osteoprotegerin, while animals treated with vehicle, dexamethasone and 17α-ethynyl-5-androstene-3β,7β,17β-triol at 4 mg/kg/day had 6.4 pmol/L osteoprotegerin (p<0.05).

EAE = details: administered at the same time the animals were immunized; cited from earlier work
[5] = compound at 10 nM, 30 nM dexamethasone

Structure (SMILES): C[C@]12CC[C@H]3[C@@H]([C@@H](O)C=C4C[C@H](O)CC[C@@]43C)[C@@H]1C[C@@H](O)[C@@H]2O [3α,7β,16α,17β-tetrahydroxyandrost-5-ene]
- decrease of the level of NF-κB activation compared to the LPS+vehicle control group (NF-κB [1]): about 50%
- reversal of the decrease in osteoprotegerin synthesis by MG-63 cells (MG-63 cells; [5]): normal osteoprotegerin levels

Structure (SMILES): C[C@]12CC[C@H]3[C@@H](CC=C4C[C@](O)(C(F)(F)F)CC[C@@]43C)[C@@H]1CC[C@@H]2O [3α-trifluoromethylandrost-5-ene-3β,17β-diol]
- cumulative incidence of EAE or lethality [2]: none of these 3 compounds significantly influenced
- course of EAE compared to vehicle-treated mice [2]: powerful anti-inflammatory properties
- mean cumulative score, follow-up period (day 31 to day 54, post treatment) [2]: 10.8±10.3

Structure (SMILES): C[C@]12CC[C@H]3[C@@H]([C@H](O)C=C4C[C@@H](O)CC[C@@]43C)[C@@H]1C[C@@H](O)[C@@H]2O [3β,7α,16α,17β-tetrahydroxyandrost-5-ene]
- reversal of the decrease in osteoprotegerin synthesis by MG-63 cells (MG-63 cells; [5]): near normal osteoprotegerin levels

Structure (SMILES): C[C@]12CC[C@H]3[C@@H]([C@@H](O)C=C4C[C@@H](O)CC[C@@]43C)[C@@H]1C[C@@H](O)[C@@H]2O [3β,7β,16α,17β-tetrahydroxyandrost-5-ene]
- cumulative incidence of EAE or lethality [2]: none of these 3 compounds significantly influenced
- course of EAE compared to vehicle-treated mice ([2]; listed as androst-5-ene-3β,7β,16α,17β-tetrol): powerful anti-inflammatory properties

Structure (SMILES): CC(=O)O[C@@H]1C2=CC[C@H]3[C@@H]4C[C@@H](O)[C@H](O)[C@@]4(C)CC[C@@H]3[C@@]2(C)CC[C@@H]1O [4β-acetoxyandrost-5-ene-3β,16α,17β-triol]
- decrease of the level of NF-κB activation compared to the LPS+vehicle control group (NF-κB [1]): about 50%

Structure (SMILES): CC12CCC(O)CC1=CC(O)C1C2CCC2(C)C(O)C(O)CC12 (stereo not drawn) [5-androstene-3β,7β,16α,17β-triol]
- reversal of the decrease in osteoprotegerin synthesis by MG-63 cells (MG-63 cells; compound at 0.1 μM, 30 nM dexamethasone): normal osteoprotegerin levels

Structure (SMILES): C#C[C@]1(O)CC[C@H]2[C@@H]3[C@@H](O)C=C4C[C@@H](O)CC[C@]4(C)[C@H]3CC[C@@]21C [17α-ethynylandrost-5-ene-3β,7β,17β-triol]
- immune suppression in PLN assay [3]: not immune suppressive, but was immune enhancing
- NF-κB in nuclei from spleen cells (NF-κB [4]; 0 hours (just before LPS)): 22 relative optical density units
- NF-κB in nuclei from spleen cells (NF-κB [4]; 1.5 hours after LPS): 2 relative optical density units
- NF-κB in nuclei from spleen cells (NF-κB [4]; 2.0 hours after LPS): 7 relative optical density units
- NF-κB in nuclei from spleen cells (NF-κB [4]; 2.5 hours after LPS): 9 relative optical density units
- osteoprotegerin levels in mice (osteoprotegerin; vehicle, dexamethasone 10 μg/day and compound at 4 mg/kg/day, 23 days, p<0.05): 6.4 pmol/L
- reversal of the decrease in osteoprotegerin synthesis by MG-63 cells (MG-63 cells; compound at 1 nM, 7 hours with 30 nM dexamethasone): completely reversed

Structure (SMILES): C[C@]12CC[C@H](O)CC1=CC[C@@H]1[C@@H]2CC[C@@]2(C)[C@H]1CC[C@@]2(O)C(F)(F)F [17α-trifluoromethylandrost-5-ene-3β,17β-diol]
- cumulative incidence of EAE or lethality [2]: none of these 3 compounds significantly influenced
- course of EAE compared to vehicle-treated mice [2]: powerful anti-inflammatory properties

Structure (SMILES): C#C[C@@]1(O)CC[C@H]2[C@@H]3[C@@H](O)C=C4C[C@@H](O)CC[C@]4(C)[C@H]3CC[C@@]21C [17β-ethynylandrost-5-ene-3β,7β,17α-triol]
- course of EAE compared to vehicle-treated mice [2]: powerful anti-inflammatory properties
- mean cumulative score, follow-up period (day 31 to day 54, post treatment) [2]: 18.4±20.6

Structure (SMILES): Cc1cc(C)c(/C=C2\C(=O)Nc3ccccc32)[nH]1 [SU5416, Z-3-[(2,4-dimethylpyrrol-5-yl)methylidenyl]-2-indolinone, reference compound]
- efficacy in EAE (EAE): effective
- course of EAE compared to vehicle-treated mice [2]: ineffective

Structure (SMILES): C[C@]12CC[C@H]3[C@@H](CC=C4[C@@H](O)[C@@H](O)CC[C@@]43C)[C@@H]1C[C@@H](O)[C@@H]2O [androst-5-ene-3β,4β,16α,17β-tetrol]
- decrease of the level of NF-κB activation compared to the LPS+vehicle control group (NF-κB [1]): about 50%

Structure (SMILES): C[C@@H]1C[C@H]2[C@@H]3CCC4=CC(=O)C=C[C@]4(C)[C@@]3(F)[C@@H](O)C[C@]2(C)[C@@]1(O)C(=O)CO [dexamethasone, reference compound]
- osteoprotegerin levels in mice (osteoprotegerin; vehicle and dexamethasone at 10 μg/day for 23 days (positive control group)): 3.3 pmol/L

From US20140010806A1, “Treatment of Ocular Diseases” (priority 2012, published 2014)
